Assay results taken from US6960456B1, “Method for preparing conjugated linoleic acid” (Valio Ltd., priority 1999, dated 2005).

Tests used:
PJS cells = assay: Viable cell concentration in pH-adjusted fermentor culturing of PJS cells with micellized linoleic acid; assay type: cell-based, Propionibacterium freudenreichii ssp. shermanii
Experimental: The most efficient way to cultivate propionic acid bacteria on an industrial scale is to do it in a fermentor where the pH of the medium can be maintained optimal for cellular growth. A production process of conjugated linoleic acid by means of growing PJS cells was examined in fermentor cultures the solution volume being 2 liters. The whey permeate broth of Example 2 was used as growth medium. The growth broth contained micellized linoleic acid 400, 600, 1000 or 1400 μg/ml and Kotilen detergent 0.6, 0.9 or 1.5%, respectively. During the cultivation, the pH of the growth medium was maintained at 6.3 with linoleic acid concentrations of 400, 600 and 1000 μg/ml and at 6.5 with linoleic acid concentration of 1400 μg/ml by means of an automatic addition of ammonium solution. The cultivation temperature was 30° C. and the mixing rate was 100 rpm. The concentration of viable propionic acid bacteria cells was determined in buffered sodium lactate agar and the agar dishes were incubated at 30° C. anaerobically for 5 to 7 days. Table 3 compares the CLA production process in a fermentor, with the linoleic acid content in the medium of 400, 600 and 1000 μg/ml, after 94 hour cultivation, and that of 1400 μg/ml, after 108 and 132 hour cultivation.

[1] = system: P. freudenreichii ssp. freudenreichii 131 (P131); assay: Growth of P131 strain in MRS medium containing linoleic acid (turbidity, Klett meter); assay type: cell-based, Propionibacterium freudenreichii ssp. freudenreichii; details: for Growth (cell density of the culture as turbidity, Klett meter): 600 μg/ml linoleic acid, 30° C.
Experimental: (§1) As controls were used the same medium without addition (positive growth control) and a medium to which only detergent was added. For the test, the propionic acid bacterium strains Propionibacterium freudenreichii ssp. shermanii JS (PJS), DSM 7067, and P. freudenreichii ssp. freudenreichii 131 ([…]) were first cultivated in MRS broths with • 1) no addition • 2) 600 μg/ml linoleic acid • 3) addition of 600 μg/ml linoleic acid from a stock solution containing 5 mg/ml linoleic acid and 1% of Tween 80 preparation in an aqueous solution (final content of Tween […]) • 4) addition of 0.9% of Kotilen and 600 μg/ml linoleic acid micellized according to Example 1 • 5) addition of 0.9% of Kotilen only (not linoleic acid) Each bacterium strain was cultivated in the culture medium twice at 30° C. for 72 h, whereafter each test broth was inoculated with 1% of fresh culture. The test cultures were monitored at 30° C. for 4 days by determining the cell density of the culture as turbidity with a Klett meter. At the end of cultivation (96 h), the amount of formed CLA was determined by gas chromatography, the c9,t11 isomer separately and the other isomers together.

propionic acid bacteria = details: even in relatively low concentrations; cited from earlier work
[2] = system: Propionibacterium freudenreichii ssp. shermanii JS (PJS); assay: Growth of PJS strain in MRS medium containing linoleic acid (turbidity, Klett meter); assay type: cell-based; details: for Growth (cell density of the culture as turbidity, Klett meter): 600 μg/ml linoleic acid, 30° C.
Experimental: as §1

breast cancer = details: cited from earlier work
[3] = system: high density lipoprotein (HDL); details: rabbit, in vivo; cited from earlier work
fatty tissues = details: mouse, in vivo; cited from earlier work
cancer cells = details: tissue cultures of human cells; cited from earlier work
[4] = system: mammary, stomach and colon cancer; details: CLA-containing diet, compared with the reference group; cited from earlier work

Compound: CCCCC/C=C\C/C=C\CCCCCCCC(=O)O [LA, cis-9,trans-12 octadecadienoic acid]
- cell concentration (cfu/ml) (PJS cells; micellized LA 400 μg/ml, deterg. (Kotilen) 0.6%, 94 h, pH 6.3, 30° C.): 1.3 × 10^10 cfu/ml
- cell concentration (cfu/ml) (PJS cells; micellized LA 600 μg/ml, deterg. (Kotilen) 0.9%, 94 h, pH 6.3, 30° C.): 1.2 × 10^10 cfu/ml
- cell concentration (cfu/ml) (PJS cells; micellized LA 1000 μg/ml, deterg. (Kotilen) 1.5%, 94 h, pH 6.3, 30° C.): 1.4 × 10^10 cfu/ml
- cell concentration (cfu/ml) (PJS cells; micellized LA 1400 μg/ml, deterg. (Kotilen) 1.5%, 108 h, pH 6.5, 30° C.): 2.4 × 10^9 cfu/ml
- cell concentration (cfu/ml) (PJS cells; micellized LA 1400 μg/ml, deterg. (Kotilen) 1.5%, 132 h, pH 6.5, 30° C.): 1.3 × 10^10 cfu/ml
- Effect on growth as compared with the control (in words) ([1]; 600 μg/ml): inhibited the growth
- Growth (cell density of the culture as turbidity, Klett meter) ([1]; 0 h): 80
- Growth (cell density of the culture as turbidity, Klett meter) ([1]; 24 h): 90
- Growth (cell density of the culture as turbidity, Klett meter) ([1]; 48 h): 97
- Growth (cell density of the culture as turbidity, Klett meter) ([1]; 72 h): 107
- Growth (cell density of the culture as turbidity, Klett meter) ([1]; 96 h): 115
- effect on the growth of propionic acid bacteria (propionic acid bacteria): inhibitory effect
- Effect on growth as compared with the control (in words) ([2]; 600 μg/ml): inhibited the growth
- Growth (cell density of the culture as turbidity, Klett meter) ([2]; 0 h): 78
- Growth (cell density of the culture as turbidity, Klett meter) ([2]; 24 h): 84
- Growth (cell density of the culture as turbidity, Klett meter) ([2]; 48 h): 96
- Growth (cell density of the culture as turbidity, Klett meter) ([2]; 72 h): 106
- Growth (cell density of the culture as turbidity, Klett meter) ([2]; 96 h): 110
- effect on breast cancer (breast cancer): stimulating effect

Compound: conjugated linoleic acid [CLA]
- amount of the good high density lipoprotein (HDL) [3]: does not reduce
- effect on fatty tissues (fatty tissues): split fatty tissues
- development of cancer cells (cancer cells): capable of inhibiting development of cancer cells
- number of mammary, stomach and colon cancer incidences [4]: reduced
